The source of these data is US20200148646A1, “6-S[…] 7-S[…] ANALOGS AND THE USE THEREOF” (Purdue Pharma, L.P., priority 2013, published 2020).

Assay [1] deals with T1, human κ opioid receptor (Homo sapiens, UniProt P41145). The assay is described as follows: κ-opioid receptor radioligand ([3H]-U69,593) dose-displacement binding assay, HEK-293 or CHO cells. Set-up: expressed in transfected cells; host or cells: HEK-293 cells (in-house prep). On the procedure:
Membranes from recombinant HEK-293 cells expressing the human K opioid receptor (cloned in house) were prepared by lysing cells in ice cold hypotonic buffer (2.5 mM MgCl2, 50 mM HEPES, pH 7.4) (10 mL/10 cm dish) followed by homogenization with a tissue grinder/Teflon pestle. Membranes were collected by centrifugation at 30,000×g for 15 min at 4° C. and pellets were resuspended in hypotonic buffer to a final concentration of 1-3 mg/mL. Protein concentrations were determined using the BioRad protein assay reagent with bovine serum albumen as standard. Aliquots of κ receptor membranes were stored at −80° C.
Radioligand dose displacement assays used 0.4 nM [^3H]-U69,593 (GE Healthcare, Piscataway, N.J.; 40 Ci/mmole) with 15 μg membrane protein (recombinant K opioid receptor expressed in HEK 293 cells; in-house prep) in a final volume of 200 μl binding buffer (5% DMSO, 50 mM Trizma base, pH 7.4). Non-specific binding was determined in the presence of 10 μM unlabeled naloxone or U69,593. All reactions were performed in 96-well polypropylene plates for 1 hr at a temperature of about 25° C. Binding reactions were terminated by rapid filtration onto 96-well Unifilter GF/C filter plates (Perkin Elmer, Shelton, Conn.) presoaked in 0.5% polyethylenimine (Sigma). Harvesting was performed using a 96-well tissue harvester (Perkin Elmer, Shelton, Conn.) followed by five filtration washes with 200 μl ice-cold binding buffer. Filter plates were subsequently dried at 50° C. for 1-2 hours. Fifty μl/well scintillation cocktail (Perkin Elmer, Shelton, Conn.) was added and plates were counted in a Packard Top-Count for 1 min/well.
(§1) In TABLE 1, binding affinity of certain Compounds of the Invention to the μ-, and κ-opioid receptors in HEK-293 or CHO cells was determined as described above.

The target of assay [2] is T1, human κ opioid receptor. The assay can be described thus: κ-opioid receptor [35S]GTPγS functional assay, U-2 OS cells. The class given is biochemical. Further details: expressed in transfected cells; host or cells: U-2 OS cells (in-house membranes). As to conditions: for Emax: U2-OS cells, relative to U69,593. In short, it runs like this:
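Membranes from U-2 OS cells expressing human κ receptor (0.026 μg/μl protein) were incubated with agonist, 10 μg/mL saponin, 3 μM GDP and 0.20 nM [35S]GTPγS in pH 7.4 HEPES buffer for 30 min at about 25 °C. Bound radioactivity was measured after filtration. EC50 was taken at half-maximal response; Emax is relative to U69,593.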

The target in assay [3] is T2, μ-opioid receptor (Homo sapiens, UniProt P35372). The assay is described as follows: μ-opioid receptor [35S]GTPγS functional assay, U-2 OS cells. Format: biochemical. Set-up: host or cells: U-2 OS cells. As to conditions: for Emax: U2-OS cells, relative to DAMGO. In short, it runs like this:
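U-2 OS membranes expressing recombinant human μ-receptor (0.026 mg/mL) were incubated with compound, […], saponin and [35S]GTPγS 0.20 nM in HEPES/NaCl/MgCl2 buffer pH 7.4 for 30 min at about 25° C. Filter-bound radioactivity gave sigmoidal fits for EC50; Emax is relative to DAMGO.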

The target of assay [4] is T2, μ-opioid receptor. The assay is described as follows: μ-opioid receptor [35S]GTPγS functional assay, HEK-293 or CHO cells. Format: biochemical. Conditions: for Emax: HEK-293 or CHO cells, relative to DAMGO. In short, it runs like this:
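Agonist-stimulated [35S]GTPγS binding to recombinant μ-receptor membranes (HEK-293 or CHO) with 0.20 nM [35S]GTPγS, […] and saponin, pH 7.4, 30 min at about 25 °C, then filtration and scintillation counting. EC50 from sigmoidal fits; Emax relative to DAMGO.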
(In general: Binding of GTPγS marks nucleotide exchange on a G protein.)

In assay [5] the target is T2, μ-opioid receptor. The assay can be described thus: μ-opioid receptor radioligand ([3H]-diprenorphine) dose-displacement binding assay, HEK-293 or CHO cells. On the procedure:
Radioligand dose-displacement binding assays for μ-opioid receptors used 0.3 nM [^3H]-diprenorphine (Perkin Elmer, Shelton, Conn.), with […] membrane protein/well in a final volume of 500 μl binding buffer (10 mM MgCl2, 1 mM EDTA, 5% DMSO, 50 mM HEPES, pH 7.4). Reactions were carried out in the absence or presence of increasing concentrations of unlabeled naloxone. All reactions were conducted in 96-deep well polypropylene plates for 2 hr at room temperature. Binding reactions were terminated by rapid filtration onto 96-well Unifilter GF/C filter plates (Perkin Elmer, Shelton, Conn.), presoaked in 0.5% polyethylenimine using a 96-well tissue harvester (Perkin Elmer, Shelton, Conn.) followed by performing three filtration washes with 500 μl of ice-cold binding buffer. Filter plates were subsequently dried at 50° C. for 2-3 hours. BetaScint scintillation cocktail (Perkin Elmer, Shelton, Conn.) was added (50 l/well), and plates were counted using a Packard Top-Count for 1 min/well. The data were analyzed using the one-site competition curve fitting functions in GraphPad PRISM™ v. 3.0 or higher (San Diego, Calif.), or an in-house function for one-site competition curve-fitting.
as §1

For assay [6], the target named is T1, human κ opioid receptor. The assay can be described thus: κ-opioid receptor [35S]GTPγS functional assay, HEK-293 or CHO cells. The class given is biochemical. Conditions: for Emax: HEK-293 or CHO cells, relative to U69,593. Further details: expressed in transfected cells. On the procedure: Membranes from recombinant HEK-293 cells, CHO or U-2 OS cells expressing the recombinant human K opioid receptor (K) were prepared by lysing cells in ice cold hypotonic buffer (2.5 mM MgCl2, 50 mM HEPES, pH 7.4) (10 mL/10 cm dish) followed by homogenization with a tissue grinder/Teflon pestle. Functional [^35S]GTPγS binding assays were conducted as follows. K opioid receptor membrane solution was prepared by sequentially adding final concentrations of 0.026 μg/μl κ membrane protein (in-house), 10 μg/mL saponin, 3 μM GDP and 0.20 nM [^35S]GTPγS to binding buffer (100 mM NaCl, 10 mM MgCl2, 20 mM HEPES, pH 7.4) on ice. The prepared membrane solution (190 μl/well) was transferred to 96-shallow well polypropylene plates containing 10 μl of 20× concentrated stock solutions of agonist prepared in DMSO. Plates were incubated for 30 min at a temperature of about 25° C. with shaking. Reactions were terminated by rapid filtration onto 96-well Unifilter GF/B filter plates (Perkin Elmer, Shelton, Conn.) using a 96-well tissue harvester (Packard) and followed by three filtration washes with 200 μl ice-cold binding buffer (10 mM NaH2PO4, 10 mM Na2HPO4, pH 7.4). Filter plates were subsequently dried at 50° C. for 2-3 hours. Fifty μl/well scintillation cocktail (Perkin Elmer, Shelton, Conn.) was added and plates were counted in a Packard Top-Count for 1 min/well.
κ GTP EC50 is the concentration of a compound providing 50% of the maximal response for the compound at a κ receptor.
κ GTP Emax (%) is the maximal effect elicited by a compound relative to the effect elicited by U69,593.
In TABLE 2, activity response of certain Compounds of the Invention at the μ- and κ-opioid receptors using HEK-293 or CHO cells was determined as described above for functional assays.

T1 sequence (P41145 whole entry): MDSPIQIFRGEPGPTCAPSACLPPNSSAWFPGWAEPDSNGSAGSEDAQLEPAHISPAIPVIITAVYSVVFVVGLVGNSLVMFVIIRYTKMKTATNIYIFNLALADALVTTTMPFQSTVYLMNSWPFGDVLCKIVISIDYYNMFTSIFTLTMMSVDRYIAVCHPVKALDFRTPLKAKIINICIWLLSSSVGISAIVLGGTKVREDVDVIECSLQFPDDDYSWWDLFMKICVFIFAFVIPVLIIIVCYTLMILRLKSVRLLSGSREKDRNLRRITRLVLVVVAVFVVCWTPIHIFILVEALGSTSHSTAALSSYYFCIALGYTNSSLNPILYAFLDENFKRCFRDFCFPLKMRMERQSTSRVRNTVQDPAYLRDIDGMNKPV
T2 sequence (P35372 whole entry, species assumed): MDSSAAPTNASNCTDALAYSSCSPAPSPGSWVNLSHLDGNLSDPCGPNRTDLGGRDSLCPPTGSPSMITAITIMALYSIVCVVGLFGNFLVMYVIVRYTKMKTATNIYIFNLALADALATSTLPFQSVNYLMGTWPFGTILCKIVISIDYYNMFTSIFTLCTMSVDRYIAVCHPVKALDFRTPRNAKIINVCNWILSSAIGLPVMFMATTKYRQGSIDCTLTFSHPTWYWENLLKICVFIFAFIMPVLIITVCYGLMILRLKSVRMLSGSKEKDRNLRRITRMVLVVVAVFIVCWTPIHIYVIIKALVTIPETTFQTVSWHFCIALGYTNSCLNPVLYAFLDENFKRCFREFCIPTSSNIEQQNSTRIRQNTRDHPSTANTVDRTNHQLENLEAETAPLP

One may read the Ki as the dissociation constant of the complex between target and ligand, obtained from inhibition or displacement. A higher Ki goes with lower affinity. In general, EC50 refers to the concentration giving half of the maximal effect. Low readings indicate an effect from little substance, high ones a need for much substance. Broadly, the Emax is the greatest response seen or fitted, relative to the assay's reference. For the molecule `NCCCCN[C@@H]1CC[C@@]2(O)[C@H]3Cc4ccc(O)cc4[C@@]2(CCN3CC2CC2)C1` [Compound 14, (4bR,6R,8aS,9R)-6-((4-aminobutyl)amino)-11-(cyclopropylmethyl)-5,6,7,8,9,10-hexahydro-8aH-9,4b-(epiminoethano)phenanthrene-3,8a-diol], the results for the Ki in assay [1] and in assay [5] were 0.56 ± 0.052 nM and 124 ± 43.5 nM, respectively. Further, the results for the EC50 in assay [2], in assay [3] and in assay [4] were 5.47 ± 0.3 nM, 85.6 ± 3.31 nM and > 20000 nM, respectively. Also, the Emax in assay [2] came out at 112 ± 5.13%; in assay [3], 74.3 ± 2.19%; in assay [4], 8.67 ± 2.96%.
For the molecule `N=C(N)NCCCN[C@@H]1CC[C@@]2(O)[C@H]3Cc4ccc(O)cc4[C@@]2(CCN3CC2CC2)C1` [Compound 15, 1-(3-(((4bR,6R,8aS,9R)-11-(cyclopropylmethyl)-3,8a-dihydroxy-6,7,8,8a,9,10-hexahydro-5H-9,4b-(epiminoethano)phenanthren-6-yl)amino)propyl)guanidine], the Ki in assay [1] came out at 0.53 ± 0.13 nM; in assay [5], 54.1 ± 10.1 nM. The EC50 in assay [2] worked out at 12.8 ± 1.3 nM; in assay [3] it was 41.5 ± 8.55 nM; in assay [4], 1110 ± 447 nM. The figures for the Emax in assay [2], in assay [3] and in assay [4] were 108 ± 2.65%, 76.3 ± 3.38% and 11.3 ± 0.33%, respectively.
For `N=C(N)NCCCCN[C@@H]1CC[C@@]2(O)[C@H]3Cc4ccc(O)cc4[C@@]2(CCN3CC2CC2)C1` [Compound 16, 1-(4-(((4bR,6R,8aS,9R)-11-(cyclopropylmethyl)-3,8a-dihydroxy-6,7,8,8a,9,10-hexahydro-5H-9,4b-(epiminoethano)phenanthren-6-yl)amino)butyl)guanidine], the Ki was 0.48 ± 0.055 nM in assay [1] and 70.5 ± 13.8 nM in assay [5]. For the same molecule, the results for the EC50 in assay [2], in assay [3] and in assay [4] were 15 ± 1.15 nM, 53.7 ± 11.5 nM and 811 ± 442 nM, respectively. The Emax was 105 ± 2.89% in assay [2], 78 ± 3.61% in assay [3] and 9 ± 0.58% in assay [4].
With `N=C(N)NCC(=O)N[C@@H]1CC[C@@]2(O)[C@H]3Cc4ccc(O)cc4[C@@]2(CCN3CC2CC2)C1` [Compound 20, N-((4bR,6R,8aS,9R)-11-(cyclopropylmethyl)-3,8a-dihydroxy-6,7,8,8a,9,10-hexahydro-5H-9,4b-(epiminoethano)phenanthren-6-yl)-2-guanidinoacetamide], the inhibitory constant (Ki) was determined as 3.23 ± 0.7 nM in assay [1] and 449 ± 53.5 nM in assay [5]. The results for the 50% effective concentration (EC50) in assay [2], in assay [3] and in assay [4] were 62.3 ± 2.37 nM, 394 ± 57.8 nM and > 20000 nM, respectively. Moreover, the Emax in assay [2] was found to be 111 ± 2.4%; in assay [3], 62.7 ± 4.26%; in assay [4], 7.33 ± 0.88%.
For `N=C(N)NCCCC(=O)N[C@@H]1CC[C@@]2(O)[C@H]3Cc4ccc(O)cc4[C@@]2(CCN3CC2CC2)C1` [Compound 22, N-((4bR,6R,8aS,9R)-11-(cyclopropylmethyl)-3,8a-dihydroxy-6,7,8,8a,9,10-hexahydro-5H-9,4b-(epiminoethano)phenanthren-6-yl)-4-guanidinobutanamide], the Ki was found to be 1.85 ± 0.22 nM in assay [1] and 251 ± 29.4 nM in assay [5]. The EC50 was 27.1 ± 4.18 nM in assay [2], 247 ± 25.5 nM in assay [3] and > 20000 nM in assay [4]. Further, the Emax is 107 ± 2.33% in assay [2], 60 ± 5.51% in assay [3] and 5 ± 1.53% in assay [4].
For `N=C(N)Nc1ccc(N[C@@H]2CC[C@@]3(O)[C@H]4Cc5ccc(O)cc5[C@@]3(CCN4CC3CC3)C2)cc1` [Compound 24, 1-(4-(((4bR,6R,8aS,9R)-11-(cyclopropylmethyl)-3,8a-dihydroxy-6,7,8,8a,9,10-hexahydro-5H-9,4b-(epiminoethano)phenanthren-6-yl)amino)phenyl)guanidine], the Ki in assay [1] was 0.24 ± 0.021 nM; in assay [5] it was 8.42 ± 2.88 nM. Also, the half-maximal effective concentration (EC50) in assay [2] was 2.91 ± 0.18 nM; in assay [3] it was 8.14 ± 0.94 nM; in assay [4], > 20000 nM. Besides, the figures for the Emax in assay [2], in assay [3] and in assay [4] were 104 ± 4.04%, 55.3 ± 2.91% and 4.33 ± 1.45%, respectively.
Consider `CC(C)CN[C@@H]1C[C@@]2(O)[C@H]3Cc4ccc(O)cc4[C@@]2(CCN3CC2CC2)C[C@@H]1O` [Compound 34, (4bR,6S,7R,8aS,9R)-11-(cyclopropylmethyl)-7-(isobutylamino)-5,6,7,8,9,10-hexahydro-8aH-9,4b-(epiminoethano)phenanthrene-3,6,8a-triol], for which the half-maximal effective concentration (EC50) in assay [6] was 0.55 ± 0.23 nM; in assay [2], 0.81 ± 0.12 nM; in assay [3], 3.84 ± 1.53 nM; in assay [4] it was > 20000 nM. Further, the Emax in assay [6] was 32 ± 1.35%; in assay [2] it was 71 ± 1.53%; in assay [3], 20.3 ± 1.76%; in assay [4] it was 1%.
As to `CC(C)C(=O)N[C@H]1C[C@@]2(O)[C@H]3Cc4ccc(O)cc4[C@@]2(CCN3CC2CC2)CC1O` (stereo partly drawn) [Compound 50, N-((4bR,7S,8aS,9R)-11-(cyclopropylmethyl)-3,6,8a-trihydroxy-6,7,8,8a,9,10-hexahydro-5H-9,4b-(epiminoethano)phenanthren-7-yl)isobutyramide], the concentration for a half-maximal effect (EC50) is 29.2 ± 2.21 nM in assay [6], 47.3 ± 3.7 nM in assay [2], 113 ± 60.8 nM in assay [3] and > 20000 nM in assay [4]. The Emax in assay [6] worked out at 45.7 ± 2.19%; in assay [2], 91.7 ± 1.33%; in assay [3], 12.8 ± 0.85%; in assay [4], 1%.
